Measurements published in patent US20050009924A1 (priority 2003, published 2005).
Where two headings read alike, the source gives them in different places.

Tests used:
rat glioma C6 cells = test: Cytotoxicity assay (XTT colorimetric), C6 cells; assay type: cell-based
human hepatoma G2 cells = test: Cytotoxicity assay (XTT colorimetric), Hep G2; assay type: cell-based
[1] = tested on: hepatitis B virus transfected hepatoma cell lines, HepG 2.2.15 cells; test: Cytotoxicity assay, 2.2.15 cells; assay type: cell-based, human

| SMILES | IC50 (rat glioma C6 cells; 48 h of drug exposure) | IC50 (human hepatoma G2 cells; 48 h of drug exposure) | IC50 ([1]; 48 h of drug exposure) | IC50 (rat glioma C6 cells) | IC50 (human hepatoma G2 cells) | IC50 [1] |
| --- | --- | --- | --- | --- | --- | --- |
| CC(C)CNc1cccc2c1C(=O)c1c(NCC(C)C)cccc1C2=O [Vd] | 1.32 ± 0.01 µM | > 20 µM | > 20 µM | – | – | – |
| CCCCCCNc1cccc2c1C(=O)c1c(NCCCCCC)cccc1C2=O [Ve] | – | – | – | > 20 µM | > 20 µM | > 20 µM |
| CC(C)Nc1cccc2c1C(=O)c1c(NC(C)C)cccc1C2=O [Vf, 1,8-Bis(isopropylamine)-anthraquinone] | 1.24 ± 0.01 µM | > 20 µM | > 20 µM | – | – | – |
| O=C1c2cccc(NCCO)c2C(=O)c2c(NCCO)cccc21 [Vg] | – | – | – | 0.02 ± 0.01 µM | > 20 µM | > 20 µM |
| O=C1c2cccc(NCCCO)c2C(=O)c2c(NCCCO)cccc21 [Vh] | 1 ± 0.01 µM | > 20 µM | > 20 µM | – | – | – |
| O=C1c2cccc(NCCCCO)c2C(=O)c2c(NCCCCO)cccc21 [Vi] | 0.41 ± 0.02 µM | 1.65 µM | > 20 µM | – | – | – |
| CN(C)CCNc1cccc2c1C(=O)c1c(NCCN(C)C)cccc1C2=O [Vj] | 0.15 ± 0.04 µM | 0.16 µM | 8.55 µM | – | – | – |
| NCCCNc1cccc2c1C(=O)c1c(NCCCN)cccc1C2=O [Vk] | > 20 µM | 11.4 ± 0.17 µM | > 20 µM | – | – | – |
| NCCCCNc1cccc2c1C(=O)c1c(NCCCCN)cccc1C2=O [Vl] | > 20 µM | 11.5 ± 0.34 µM | > 20 µM | – | – | – |
| O=C1c2cccc(NC3CCCC3)c2C(=O)c2c(NC3CCCC3)cccc21 [Vn] | > 20 µM | > 20 µM | > 20 µM | – | – | – |
| O=C1c2cccc(NCc3ccccc3)c2C(=O)c2c(NCc3ccccc3)cccc21 [Vo] | 1.66 ± 0.09 µM | > 20 µM | > 20 µM | – | – | – |
| O=C1c2cccc(NCCc3ccccc3)c2C(=O)c2c(NCCc3ccccc3)cccc21 [Vp] | > 20 µM | > 20 µM | > 20 µM | – | – | – |
